Source: ChEMBL document CHEMBL2380275, “Synthesis of new heterocyclic hybrids based on pyrazole and thiazolidinone scaffolds as potent inhibitors of tyrosinase” (Bioorg Med Chem, 2013)
Calls of active or inactive are those of the source. No cut-off for these calls is given here.

Legend:
[1] = target: T1, Tyrosinase (Agaricus bisporus) (UniProt O42713); assay: Inhibition of mushroom tyrosinase using L-DOPA as substrate at 200 uM preincubated for 10 mins by spectrophotometric analysis relative to control
T1 sequence (whole entry): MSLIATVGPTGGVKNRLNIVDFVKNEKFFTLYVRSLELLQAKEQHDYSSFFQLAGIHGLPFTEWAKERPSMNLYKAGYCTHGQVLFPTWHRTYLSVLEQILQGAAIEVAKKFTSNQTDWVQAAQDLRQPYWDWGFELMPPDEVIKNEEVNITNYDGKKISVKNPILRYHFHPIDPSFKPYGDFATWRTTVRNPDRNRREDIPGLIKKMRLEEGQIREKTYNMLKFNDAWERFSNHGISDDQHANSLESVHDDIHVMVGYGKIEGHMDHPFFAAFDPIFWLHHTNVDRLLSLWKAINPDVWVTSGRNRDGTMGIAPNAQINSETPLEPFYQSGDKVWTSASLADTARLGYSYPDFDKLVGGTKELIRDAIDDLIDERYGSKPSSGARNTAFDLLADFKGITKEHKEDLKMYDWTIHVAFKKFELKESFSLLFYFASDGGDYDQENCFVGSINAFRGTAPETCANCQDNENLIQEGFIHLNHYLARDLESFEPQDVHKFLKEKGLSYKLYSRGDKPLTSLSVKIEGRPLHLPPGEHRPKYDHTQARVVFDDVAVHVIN

Tyrosinase [2] = target: T2, Tyrosinase (Agaricus bisporus, UniProt O42713); assay: Inhibition of mushroom tyrosinase using L-DOPA as substrate preincubated for 10 mins by spectrophotometric analysis
T2 sequence (O42713 whole entry): T1 sequence (whole entry)

[3] = target: T1, Tyrosinase (Agaricus bisporus); assay: Reversible inhibition of mushroom tyrosinase diphenolase activity assessed as L-DOPA conversion to dopachrome by Lineweaver-Burk plot analysis
Tyrosinase [4] = target: T2, Tyrosinase
Description: Competitive inhibition of mushroom tyrosinase diphenolase activity assessed as L-DOPA conversion to dopachrome by Lineweaver-Burk plot analysis

| inhibition [1] | IC50 (Tyrosinase [2]) | inhibition [3] | Ki (Tyrosinase [4]) | Compound |
| --- | --- | --- | --- | --- |
| 13.5% | 194 µM |  |  | COc1ccc(NC2=NC(=O)/C(=C/c3cn(-c4ccccc4)nc3-c3ccc(C)cc3)S2)c(OC)c1 |
| 110% | 52.6 µM | Active | 21.5 µM | COc1ccc(NC2=NC(=O)/C(=C/c3cn(-c4ccccc4)nc3-c3cccc(Cl)c3)S2)c(OC)c1 |
| 126% | 34.1 µM | Active | 29.1 µM | COc1ccc(NC2=NC(=O)/C(=C/c3cn(-c4ccccc4)nc3-c3ccccc3Cl)S2)c(OC)c1 |
| 87.9% | 131 µM |  | 9.46 µM | COc1ccc(NC2=NC(=O)/C(=C/c3cn(-c4ccccc4)nc3-c3ccc(Br)cc3)S2)c(OC)c1 |
| 54.2% | 104 µM |  | 7.18 µM | COc1ccc(NC2=NC(=O)/C(=C/c3cn(-c4ccccc4)nc3-c3ccc(F)cc3)S2)c(OC)c1 |
| 46.8% | 114 µM |  |  | COc1ccc(-c2nn(-c3ccccc3)cc2/C=C2\SC(Nc3ccc(OC)cc3OC)=NC2=O)cc1 |
| 52% | 81.7 µM |  | 16.9 µM | COc1ccc(NC2=NC(=O)/C(=C/c3cn(-c4ccccc4)nc3-c3ccc(Cl)cc3Cl)S2)c(OC)c1 |
| 8.03% |  |  |  | COc1ccc(NC2=NC(=O)/C(=C/c3cn(-c4ccccc4)nc3-c3ccccc3)S2)c(OC)c1 |
| 38% | 74 µM |  | 5.7 µM | COc1ccc(NC2=NC(=O)/C(=C/c3cn(-c4ccccc4)nc3-c3ccc(Cl)cc3)S2)c(OC)c1 |
